What was measured:
Type in all cases: functional
SK-MEL-2 = assay: Cytotoxicity against Homo sapiens (human) SK-MEL-2 cells assessed as growth inhibition at 10 uM after 48 hr by coulter counter analysis; settings: SK-MEL-2, 48 h, read-out: GI
EKVX = assay: Cytotoxicity against Homo sapiens (human) EKVX cells assessed as growth inhibition at 10 uM after 48 hr by coulter counter analysis; settings: read-out: GI
Malme-3M = assay: Cytotoxicity against Homo sapiens (human) MALME-3M cells assessed as growth inhibition at 10 uM after 48 hr by coulter counter analysis; settings: read-out: GI
[1] = Cytotoxicity against Homo sapiens (human) NCI-ADR-RES cells assessed as growth inhibition at 10 uM after 48 hr by coulter counter analysis; settings: read-out: GI
NCI-H23 = assay: Cytotoxicity against Homo sapiens (human) NCI-H23 cells assessed as growth inhibition at 10 uM after 48 hr by coulter counter analysis; settings: NCI-H23, 48 h, read-out: GI
MOLT-4 = assay: Cytotoxicity against Homo sapiens (human) MOLT4 cells assessed as growth inhibition at 10 uM after 48 hr by coulter counter analysis; settings: MOLT-4, 48 h, read-out: GI
UACC-257 = assay: Cytotoxicity against Homo sapiens (human) UACC257 cells assessed as growth inhibition at 10 uM after 48 hr by coulter counter analysis; settings: UACC-257, 48 h, read-out: GI
HT-29 = assay: Cytotoxicity against Homo sapiens (human) HT-29 cells assessed as growth inhibition at 10 uM after 48 hr by coulter counter analysis; settings: HT-29, 48 h, read-out: GI
KM12 = assay: Cytotoxicity against Homo sapiens (human) KM12 cells assessed as growth inhibition at 10 uM after 48 hr by coulter counter analysis; settings: KM12, 48 h, read-out: GI
SW-620 = assay: Cytotoxicity against Homo sapiens (human) SW620 cells assessed as growth inhibition at 10 uM after 48 hr by coulter counter analysis; settings: SW-620, 48 h, read-out: GI
IGROV-1 = assay: Cytotoxicity against Homo sapiens (human) IGROV1 cells assessed as growth inhibition at 10 uM after 48 hr by coulter counter analysis; settings: IGROV-1, 48 h, read-out: GI
OVCAR-8 = assay: Cytotoxicity against Homo sapiens (human) OVCAR8 cells assessed as growth inhibition at 10 uM after 48 hr by coulter counter analysis; settings: OVCAR-8, 48 h, read-out: GI
HCT-116 = assay: Cytotoxicity against Homo sapiens (human) HCT116 cells assessed as growth inhibition at 10 uM after 48 hr by coulter counter analysis; settings: HCT-116, 48 h, read-out: GI
SNB-19 = assay: Cytotoxicity against Homo sapiens (human) SNB19 cells assessed as growth inhibition at 10 uM after 48 hr by coulter counter analysis; settings: SNB-19, 48 h, read-out: GI
HCC 2998 = assay: Cytotoxicity against Homo sapiens (human) HCC2998 cells assessed as growth inhibition at 10 uM after 48 hr by coulter counter analysis; settings: HCC 2998, 48 h, read-out: GI
A498 = assay: Cytotoxicity against Homo sapiens (human) A498 cells assessed as growth inhibition at 10 uM after 48 hr by coulter counter analysis; settings: A498, 48 h, read-out: GI
SN12C = assay: Cytotoxicity against Homo sapiens (human) SN12C cells assessed as growth inhibition at 10 uM after 48 hr by coulter counter analysis; settings: read-out: GI
SK-OV-3 = assay: Cytotoxicity against Homo sapiens (human) SKOV3 cells assessed as growth inhibition at 10 uM after 48 hr by coulter counter analysis; settings: SK-OV-3, 48 h, read-out: GI
Hs-578T = assay: Cytotoxicity against Homo sapiens (human) Hs578T cells assessed as growth inhibition at 10 uM after 48 hr by coulter counter analysis; settings: read-out: GI
RXF 393 = assay: Cytotoxicity against Homo sapiens (human) RXF393 cells assessed as growth inhibition at 10 uM after 48 hr by coulter counter analysis; settings: RXF 393, 48 h, read-out: GI
OVCAR-4 = assay: Cytotoxicity against Homo sapiens (human) OVCAR4 cells assessed as growth inhibition at 10 uM after 48 hr by coulter counter analysis; settings: OVCAR-4, 48 h, read-out: GI
UO-31 = assay: Cytotoxicity against Homo sapiens (human) UO31 cells assessed as growth inhibition at 10 uM after 48 hr by coulter counter analysis; settings: UO-31, 48 h, read-out: GI
M14 = assay: Cytotoxicity against Homo sapiens (human) M14 cells assessed as growth inhibition at 10 uM after 48 hr by coulter counter analysis; settings: M14, 48 h, read-out: GI
HOP-92 = assay: Cytotoxicity against Homo sapiens (human) HOP92 cells assessed as growth inhibition at 10 uM after 48 hr by coulter counter analysis; settings: HOP-92, 48 h, read-out: GI
TK-10 = assay: Cytotoxicity against Homo sapiens (human) TK10 cells assessed as growth inhibition at 10 uM after 48 hr by coulter counter analysis; settings: TK-10, 48 h, read-out: GI
SF-268 = assay: Cytotoxicity against Homo sapiens (human) SF268 cells assessed as growth inhibition at 10 uM after 48 hr by coulter counter analysis; settings: SF-268, 48 h, read-out: GI
CAKI-1 = assay: Cytotoxicity against Homo sapiens (human) Caki1 cells assessed as growth inhibition at 10 uM after 48 hr by coulter counter analysis; settings: CAKI-1, 48 h, read-out: GI
SR = assay: Cytotoxicity against Homo sapiens (human) SR cells assessed as growth inhibition at 10 uM after 48 hr by coulter counter analysis; settings: read-out: GI
A549 = assay: Cytotoxicity against Homo sapiens (human) A549 cells assessed as growth inhibition at 10 uM after 48 hr by coulter counter analysis; settings: A549, 48 h, read-out: GI
ACHN = assay: Cytotoxicity against Homo sapiens (human) ACHN cells assessed as growth inhibition at 10 uM after 48 hr by coulter counter analysis; settings: read-out: GI
SK-MEL-28 = assay: Cytotoxicity against Homo sapiens (human) SK-MEL-28 cells assessed as growth inhibition at 10 uM after 48 hr by coulter counter analysis; settings: SK-MEL-28, 48 h, read-out: GI
LOX IMVI = assay: Cytotoxicity against Homo sapiens (human) LOXIMVI cells assessed as growth inhibition at 10 uM after 48 hr by coulter counter analysis; settings: read-out: GI
NCI-H226 = assay: Cytotoxicity against Homo sapiens (human) NCI-H226 cells assessed as growth inhibition at 10 uM after 48 hr by coulter counter analysis; settings: NCI-H226, 48 h, read-out: GI
DU-145 = assay: Cytotoxicity against Homo sapiens (human) DU145 cells assessed as growth inhibition at 10 uM after 48 hr by coulter counter analysis; settings: DU-145, 48 h, read-out: GI
MDA-MB-231 = assay: Cytotoxicity against Homo sapiens (human) MDA-MB-231 cells assessed as growth inhibition at 10 uM after 48 hr by coulter counter analysis; settings: MDA-MB-231, 48 h, read-out: GI

Compound | inhibition of growth at 10 µM (SK-MEL-2) [%] | inhibition of growth at 10 µM (EKVX) [%] | inhibition of growth at 10 µM (Malme-3M) [%] | inhibition of growth at 10 µM [1] [%] | inhibition of growth at 10 µM (NCI-H23) [%] | inhibition of growth at 10 µM (MOLT-4) [%] | inhibition of growth at 10 µM (UACC-257) [%] | inhibition of growth at 10 µM (HT-29) [%] | inhibition of growth at 10 µM (KM12) [%] | inhibition of growth at 10 µM (SW-620) [%] | inhibition of growth at 10 µM (IGROV-1) [%] | inhibition of growth at 10 µM (OVCAR-8) [%] | inhibition of growth at 10 µM (HCT-116) [%] | inhibition of growth at 10 µM (SNB-19) [%] | inhibition of growth at 10 µM (HCC 2998) [%] | inhibition of growth at 10 µM (A498) [%] | inhibition of growth at 10 µM (SN12C) [%] | inhibition of growth at 10 µM (SK-OV-3) [%] | inhibition of growth at 10 µM (Hs-578T) [%] | inhibition of growth at 10 µM (RXF 393) [%] | other results
Clc1ccc(C2C3=C(CCCC3)Nc3ncn4nc(-c5ccccc5)nc4c32)cc1 (stereo not given) | < 10 | < 10 | < 10 | < 10 | 11.7 | 11 | < 10 | 14.4 | < 10 | < 10 | < 10 | < 10 | < 10 | < 10 | < 10 | 20.6 | < 10 | < 10 | < 10 | < 10 | inhibition of growth at 10 µM (OVCAR-4): < 10%; inhibition of growth at 10 µM (UO-31): 40%; inhibition of growth at 10 µM (M14): < 10%; inhibition of growth at 10 µM (HOP-92): 14%; inhibition of growth at 10 µM (TK-10): < 10%; inhibition of growth at 10 µM (SF-268): < 10%; inhibition of growth at 10 µM (CAKI-1): 12.4%; inhibition of growth at 10 µM (SR): < 10%; inhibition of growth at 10 µM (A549): < 10%; inhibition of growth at 10 µM (ACHN): < 10%; inhibition of growth at 10 µM (SK-MEL-28): < 10%; inhibition of growth at 10 µM (LOX IMVI): 15.1%; inhibition of growth at 10 µM (NCI-H226): 15.2%; inhibition of growth at 10 µM (DU-145): < 10%; inhibition of growth at 10 µM (MDA-MB-231): 11.1%
Oc1ccc(-c2nc3c4c(ncn3n2)NC2=C(CCCC2)C4c2ccc(Cl)cc2)cc1 (stereo not given) | < 10 | < 10 | 13 | < 10 | 12.9 | < 10 | < 10 | < 10 | < 10 | < 10 | < 10 | < 10 | < 10 | < 10 | < 10 | 25.1 | < 10 | < 10 | 14.1 | < 10 | inhibition of growth at 10 µM (OVCAR-4): < 10%; inhibition of growth at 10 µM (UO-31): 29%; inhibition of growth at 10 µM (M14): < 10%; inhibition of growth at 10 µM (HOP-92): 42.1%; inhibition of growth at 10 µM (TK-10): < 10%; inhibition of growth at 10 µM (SF-268): < 10%; inhibition of growth at 10 µM (CAKI-1): 24.6%; inhibition of growth at 10 µM (SR): < 10%; inhibition of growth at 10 µM (A549): < 10%; inhibition of growth at 10 µM (ACHN): < 10%; inhibition of growth at 10 µM (SK-MEL-28): < 10%; inhibition of growth at 10 µM (LOX IMVI): 14.3%; inhibition of growth at 10 µM (NCI-H226): < 10%; inhibition of growth at 10 µM (DU-145): < 10%; inhibition of growth at 10 µM (MDA-MB-231): 20.5%
COc1ccc(C2C3=C(CCCC3)Nc3ncn4nc(-c5ccccc5)nc4c32)cc1OC (stereo not given) | < 10 | 11 | < 10 | < 10 | 10.7 | 19.8 | < 10 | < 10 | < 10 | < 10 | < 10 | 14.7 | < 10 | < 10 | < 10 | 53.6 | < 10 | < 10 | < 10 | 19.9 | inhibition of growth at 10 µM (OVCAR-4): < 10%; inhibition of growth at 10 µM (UO-31): 38.7%; inhibition of growth at 10 µM (M14): < 10%; inhibition of growth at 10 µM (HOP-92): 36.8%; inhibition of growth at 10 µM (TK-10): < 10%; inhibition of growth at 10 µM (SF-268): < 10%; inhibition of growth at 10 µM (CAKI-1): 13.1%; inhibition of growth at 10 µM (SR): < 10%; inhibition of growth at 10 µM (A549): 12.3%; inhibition of growth at 10 µM (ACHN): 20%; inhibition of growth at 10 µM (SK-MEL-28): < 10%; inhibition of growth at 10 µM (LOX IMVI): < 10%; inhibition of growth at 10 µM (NCI-H226): 19.6%; inhibition of growth at 10 µM (DU-145): < 10%; inhibition of growth at 10 µM (MDA-MB-231): 12.6%
COc1ccc(C2C3=C(CCCC3)Nc3ncn4nc(-c5ccc(O)cc5)nc4c32)cc1OC (stereo not given) | < 10 | < 10 | < 10 | < 10 | < 10 | 12.3 | < 10 | < 10 | < 10 | < 10 | < 10 | < 10 | < 10 | < 10 | < 10 | < 10 | < 10 | < 10 | < 10 | < 10 | inhibition of growth at 10 µM (OVCAR-4): < 10%; inhibition of growth at 10 µM (UO-31): 29.3%; inhibition of growth at 10 µM (M14): < 10%; inhibition of growth at 10 µM (HOP-92): 12.2%; inhibition of growth at 10 µM (TK-10): < 10%; inhibition of growth at 10 µM (SF-268): < 10%; inhibition of growth at 10 µM (CAKI-1): < 10%; inhibition of growth at 10 µM (SR): < 10%; inhibition of growth at 10 µM (A549): < 10%; inhibition of growth at 10 µM (ACHN): < 10%; inhibition of growth at 10 µM (SK-MEL-28): < 10%; inhibition of growth at 10 µM (LOX IMVI): < 10%; inhibition of growth at 10 µM (NCI-H226): 15.3%; inhibition of growth at 10 µM (DU-145): < 10%; inhibition of growth at 10 µM (MDA-MB-231): 12.8%

Source: ChEMBL document CHEMBL3045802, “Synthesis and in vitro antitumor activity of new quinoline, pyrimido[4,5-b]quinoline, [1,2,3]triazino[4,5-b]quinoline, and [1,2,4]triazolo[2,3:3,4]pyrimido[6,5-b]quinoline analogs” (2013)
